tested on: HCV replicon; assay: HCV replicon replication assay (NPT ELISA) in Huh-7 replicon-containing cells; type: cell-based; settings: Hepatitis C virus, 72 h; HCV replicon in Huh-7 cells, three days incubation; read-out: EC50
Description: Compounds claimed herein are tested for the ability to inhibit viral replication of the Hepatitis C replicon in cultured cells in which the HCV replicon construct has been incorporated. The HCV replicon system was described by Bartenschlager, et. al (Science, 285, pp. 110-113 (1999)). The replicon system is predictive of in vivo anti-HCV activity; compounds that are active in humans uniformly evidence activity in the replicon assay.
In this assay HCV replicon containing cells are treated with different concentrations of the test compound to ascertain the ability of the test compound to suppress replication of the HCV replicon. As a positive control, HCV replicon-containing cells are treated with different concentrations of interferon alpha, a known inhibitor of HCV replication. The replicon assay system includes Neomycin Phosphotransferase (NPT) as a component of the replicon itself in order to detect the transcription of replicon gene products in the host cell. Cells in which the HCV replicon is actively replicating have high levels of NPT; the level of NPT is proportional to HCV replication. […] The NPT level of each sample is measured using a captured ELISA.
A protocol for testing compounds for the ability to inhibit viral replication of the Hepatitis C replicon cultured cells in which the replicon construct has been incorporated, follows.
The HCV replicon contains, 5′-3′, the HCV-IRES, the neomycin phosphotransferase (neo) gene, the IRES of encephalomyocarditis virus, which directs translation of HCV sequences NS3 to NS5B, and the 3′-NTR. The sequence of the HCV replicon has been deposited in GenBank (Accession no. AJ242652).
The replicon is transfected into Huh-7 cells using standard methods such as electroporation.
The equipment and materials include, but are not limited to, Huh-7 HCV replicon-containing cells, maintenance media (DMEM (Dulbecco's modified Eagle media) supplemented with 10% FBS, L-glutamine, non-essential amino acids, penicillin (100 units/ml), streptomycin (100 micrograms/ml), and 500 micrograms/ml of Geneticin (G418), screening media (DMEM supplemented with 10% FBS, L-glutamine, non-essential amino acids, penicillin (100 units/ml) and streptomycin (100 micrograms/ml)), 96 well tissue culture plates (flat bottom), 96 well plates (U bottom for drug dilution), Interferon alpha for positive control, fixation reagent (such as methanol: acetone), primary antibody (rabbit anti-NPTII), secondary antibody: Eu-N1 l, and enhancement solution.
HCV replicon-containing cells support high levels of viral RNA replicon replication when their density is suitable. Over-confluency causes decreased viral RNA replication. Therefore, cells must be kept growing in log phase in the presence of 500 micrograms/ml of G418. Generally, cells should be passed twice a week at 1: 4-6 dilution. Cell maintenance is conducted as follows:
HCV replicon-containing cells are examined under a microscope to ensure that cells growing well. Cells are rinsed once with PBS and 2 ml trypsin is added. The cell/trypsin mixture is incubated at 37° C. in a CO2 incubator for 3-5 minutes. After incubation 10 ml of complete media is added to stop the trypsinization reaction. Cells are blown gently, put into a 15 ml tube, and spun at 1200 rpm for 4 minutes. The trypsin/medium solution is removed. Medium (5 ml) is added and the cells are mixed carefully. The cells are counted.
The cells are then seeded onto 96-well plates at a density of 6000-7500 cells/100 microliters/well (6-7.5×10^5 cells/10 ml/plate). The plates are then incubated at 37° C. in a 5% CO2 incubator.
Cells are examined under a microscope approximated 24 hours after seeding and prior to adding drugs. If counting and dilution were performed correctly, cells are 60-70% confluent and nearly all cells should attach and spread evenly in the well.
HCV replicon-containing cells are rinsed with once PBS once; 2 mls of trypsin are then added. Cells are incubated at 37° C. in a 5% CO2 incubator for 3-5 minutes. […]

Compound	EC50
COc1ccc2c(O[C@@H]3C[C@@H](C(=O)NC4(C(=O)NS(=O)(=O)C5CC5)CCC4)N(C(=O)[C@@H](CC(=O)N4CCCCC4)C(C)(C)C)C3)cc(-c3ccccc3)nc2c1 [Compound 97, (2S,4R)-1-((S)-2-tert-butyl-4-oxo-4-(piperidin-1-yl)butanoyl)-N-(1-(cyclopropylsulfonyl-carbamoyl)cyclo-butyl)-4-(7-methoxy-2-phenylquinolin-4-yloxy)pyrrolidine-2-carboxamide]	1000 to 10000 nM
C=C[C@@H]1C[C@]1(NC(=O)[C@@H]1C[C@@H](Oc2cc(-c3ccccc3)nc3cc(OC)ccc23)CN1C(=O)[C@@H](CC(=O)N1CCCCC1)C(C)(C)C)C(=O)O [Compound 210, (1R)-1-((2S,4R)-1-((S)-2-tert-butyl-4-oxo-4-(piperidin-1-yl)butanoyl)-4-(7-methoxy-2-phenylquinolin-4-yloxy)pyrrolidine-2-carboxamido)-2-vinylcyclopropane-carboxylic acid]	> 10000 nM
C=C[C@@H]1C[C@]1(NC(=O)[C@@H]1C[C@@H](OC(=O)Nc2ccccc2C(=O)OCC)CN1C(=O)[C@@H](CC(=O)N1CCCCC1)C(C)(C)C)C(=O)NS(=O)(=O)C1CC1 [Compound 94]	< 1000 nM
C=C[C@@H]1C[C@]1(NC(=O)[C@@H]1C[C@@H](Oc2cc(-c3ccccc3)nc3cc(OC)ccc23)CN1C(=O)[C@@H](CC(=O)N1CCCCCC1)C(C)(C)C)C(=O)NS(=O)(=O)C1CC1 [Compound 77, (2S,4R)-1-((S)-4-(azepan-1-yl)-2-tert-butyl-4-oxobutanoyl)-N-((1R,2S)-1-(cyclopropyl-sulfonylcarbamoyl)-2-vinylcyclopropyl)-4-(7-methoxy-2-phenylquinolin-4-yloxy)pyrrolidine-2-carboxamide]	< 1000 nM
C=C[C@@H]1C[C@]1(NC(=O)[C@@H]1C[C@@H](Oc2nc(-c3ccccn3)cc3c(Cl)c(OC)ccc23)CN1C(=O)[C@@H](CC(=O)N1CCCC(F)(F)C1)C(C)(C)C)C(=O)NS(=O)(=O)C1CC1 [Compound 244, (2S,4R)-1-((S)-2-tert-butyl-4-(3,3-difluoropiperidin-1-yl)-4-oxobutanoyl)-4-(5-chloro-6-methoxy-3-(pyridin-2-yl)isoquinolin-1-yloxy)-N-((2S)-1-(cyclopropyl-sulfonylcarbamoyl)-2-vinylcyclo-propyl)pyrrolidine-2-carboxamide]	< 1000 nM
C=CCC1(S(=O)(=O)NC(=O)[C@@]2(NC(=O)[C@@H]3C[C@@H](Oc4cc(-c5ccccc5)nc5cc(OC)ccc45)CN3C(=O)[C@@H](CC(=O)N3CCCCC3)C(C)(C)C)C[C@H]2C=C)CC1 [Compound 151]	< 1000 nM
CC[C@@H](NC(=O)[C@@H]1C[C@@H](Oc2cc(-c3ccccc3)nc3cc(OC)ccc23)CN1C(=O)[C@@H](CC(=O)N1CCCCC1)C(C)(C)C)C(=O)NS(=O)(=O)C1CC1 [Compound 116, (2S,4R)-1-((S)-2-tert-butyl-4-oxo-4-(piperidin-1-yl)butanoyl)-N-((R)-1-(cyclopropanesulfon-amido)-1-oxobutan-2-yl)-4-(7-methoxy-2-phenylquinolin-4-yloxy)pyrrolidine-2-carboxamide]	1000 to 10000 nM
C=C[C@@H]1C[C@]1(NC(=O)[C@@H]1C[C@@H](OC(=O)N2c3ccccc3Sc3ccccc32)CN1C(=O)[C@@H](CC(=O)N1CCCCC1)C(C)(C)C)C(=O)NS(=O)(=O)C1CC1 [Compound 123, (3R,5S)-1-((S)-2-tert-butyl-4-oxo-4-(piperidin-1-yl)butanoyl)-5-((1R,2S)-1-(cyclopropylsulfonyl-carbamoyl)-2-vinyl-cyclopropylcarbamo-yl)pyrrolidin-3-yl 10H-phenothiazine-10-carboxylate]	1000 to 10000 nM

— patent publication US9133115B2 (ACHILLION PHARMACEUTICALS, INC., priority 2008, dated 2015)
